From patent US10271552B2, “Heterocyclic compounds as pesticides” (Bayer CropScience Aktiengesellschaft, priority 2015, dated 2019)

Key:
Type in all cases: in vivo
[1] = test system: Meloidogyne incognita; test: Meloidogyne incognita test; conditions: 20 ppm; eggs and larvae, salad seeds in sand; after 14 days
Description: Meloidogyne incognita—Test
Solvent: 125.0 parts by weight of acetone
To produce a suitable preparation of active compound, 1 part by weight of active compound is mixed with the stated amount of solvent, and the concentrate is diluted with water to the desired concentration.
Vessels are filled with sand, a solution of the active ingredient, a suspension containing eggs and larvae of the southern root-knot nematode (Meloidogyne incognita) and salad seeds. The salad seeds germinate and the seedlings grow. Galls develop in the roots.
After 14 days the nematicidal activity is determined on the basis of the percentage of gall formation. 100% means no galls were found and 0% means the number of galls found on the roots of the treated plants was equal to that in untreated control plants.

[2] = test system: Boophilus microplus; test: Boophilus microplus injection test; conditions: 20 μg/animal injected; adult engorged female ticks; after 7 days
Description: Boophilus microplus—Injection Test
Solvent: dimethyl sulfoxide
To produce a suitable preparation of active compound, 10 mg of active compound are dissolved in 0.5 ml solvent, and the concentrate is diluted with solvent to the desired concentration.
Five adult engorged female ticks (Boophilus microplus) are injected with 1 μl compound solution into the abdomen. The ticks are transferred into replica plates and incubated in a climate chamber.
After 7 days egg deposition of fertile eggs is monitored. Eggs where fertility is not visible are stored in a climate chamber till hatching after about 42 days. An efficacy of 100% means all eggs are infertile; 0% means all eggs are fertile.

[3] = test system: Ctenocephalides felis; test: Ctenocephalides felis in-vitro contact test, adult cat flea; conditions: 5 μg/cm^2 (=500 g/ha), after 48 hours
Description: Ctenocephalides felis—In-Vitro Contact Tests Adult Cat Flea
9 mg compound is solved in 1 ml acetone and diluted with acetone to the desired concentration. 250 μl of the test solution is filled in 25 ml glass test tubes and homogeneously distributed on the inner walls by rotation and tilting on a shaking device (2 h at 30 rpm). With a compound concentration of 900 ppm, an inner surface of 44.7 cm^2 and a homogeneous distribution, a dose of 5 μg/cm^2 is achieved.
After the solvent has evaporated, each test tube is filled with 5-10 adult cat fleas (Ctenocephalides felis), closed with a perforated lid and incubated in a lying position at room temperature and relative humidity. After 48 hours efficacy is determined. The fleas are patted on the ground of the tubes and are incubated on a heating plate at 45-50° C. for at most 5 minutes. Immotile or uncoordinated moving fleas, which are not able to escape the heat by climbing upwards, are marked as dead or moribund.
An efficacy of 100% means all fleas are dead or moribund; 0% means no fleas are dead or moribund.

[4] = test system: Diabrotica balteata; test: Diabrotica balteata spray test; conditions: 160 μg/well; germinated wheat seeds, larvae; after 7 days
Description: Diabrotica Balteata—Spray Test
(§1) Solvent: 78.0 parts by weight of acetone • • 1.5 parts by weight of dimethylformamide
(§2) Emulsifier: alkylarylpolyglycol ether
(§3) To produce a suitable preparation of active compound, 1 part by weight of active compound is mixed with the stated amount of solvent, and the concentrate is diluted with water, containing an emulsifier concentration of 1000 ppm, to the desired concentration. Further test concentrations are prepared by dilution with emulsifier containing water.
Soaked wheat seeds (Triticum aestivum) are placed in a multiple well plate filled with agar and some water and are incubated for 1 day to germinate (5 seeds per well). The germinated wheat seeds are sprayed with a test solution containing the desired concentration of the active ingredient. Afterwards each unit is infected with 10-20 larvae of the banded cucumber beetle (Diabrotica balteata).
After 7 days efficacy in % is determined. 100% means all the seedlings have grown up like in the untreated, uninfected control; 0% means none of the seedlings have grown.

[5] = test system: Phaedon cochleariae; test: Phaedon cochleariae spray test; conditions: foliar, 168 h, Chinese cabbage leaf disks, larvae, after 7 days
Description: Phaedon cochleariae—Spray Test
as §1, §2
as §3, with “solvents” for “solvent,”, “and” for “and the concentrate”
Chinese cabbage (Brassica pekinensis) leaf disks are sprayed with a preparation of the active ingredient of the desired concentration. Once dry, the leaf disks are infested with mustard beetle larvae (Phaedon cochleariae).
After 7 days mortality in % is determined. 100% means all beetle larvae have been killed and 0% means none of the beetle larvae have been killed.

[6] = test system: Nezara viridula; test: Nezara viridula spray test (solvent 78.0 acetone / 1.5 dimethylformamide); conditions: 96 h, barley plants, larvae, after 4 days
Description: (§4) Nezara viridula—Spray Test
as §1, §2, §3
(§5) Barley plants (Hordeum vulgare) infested with larvae of the southern green stink bug (Nezara viridula) are sprayed with a test solution containing the desired concentration of the active ingredient.
(§6) After 4 days mortality in % is determined. 100% means all the stink bugs have been killed; 0% means none of the stink bugs have been killed.

[7] = test system: Nezara viridula; test: Nezara viridula spray test (solvent 52.5 acetone / 7 dimethylformamide); conditions: 96 h, barley plants, larvae, after 4 days
Description: as §4
Solvent: 52.5 parts by weight of acetone • 7 parts by weight of dimethylformamide
Emulsifier: alkylaryl polyglycolether
To produce a suitable preparation of active compound, 1 part by weight of active compound is mixed with the stated amount of solvent, and the concentrate is diluted with water, containing an emulsifier concentration of 1000 ppm, to the desired concentration. Ammonium salt and/or penetration enhancer in a dosage of 1000 ppm are added to the desired concentration if necessary.
as §5, §6

[8] = test system: Tetranychus urticae; test: Tetranychus urticae spray test OP-resistant; conditions: foliar, 144 h, French bean leaf disks, all instars, after 6 days
Description: Tetranychus urticae—Spray Test OP-Resistant
Solvent: 78.0 parts by weight acetone • 1.5 parts by weight dimethylformamide
as §2
as §3, with “solvents” for “solvent,”, “and” for “and the concentrate”
French bean (Phaseolus vulgaris) leaf disks infected with all instars of the two spotted spidermite (Tetranychus urticae), are sprayed with a preparation of the active ingredient of the desired concentration.
After 6 days mortality in % is determined. 100% means all spider mites have been killed and 0% means none of the spider mites have been killed.

Row | Compound | nematicidal activity (gall formation) [1] | efficacy (infertile eggs) [2] | efficacy (seedling growth) [4] | other results
1 | O=C(Nc1nc(-c2c(F)cccc2F)ns1)c1ccccc1Cl [Compound I-1-3] | 90% | 100% | – | –
2 | O=C(Nc1nc(-c2c(F)cccc2F)ns1)c1ccccc1C(F)(F)F [Compound I-1-4] | 90% | 100% | – | efficacy (fleas dead or moribund) [3]: 100%
3 | O=C(Nc1nc(-c2c(F)cccc2F)ns1)c1nccnc1C(F)(F)F [Compound I-1-7] | – | 100% | 100% | efficacy (fleas dead or moribund) [3]: 100%
4 | O=C(Nc1nc(-c2c(F)cccc2F)ns1)c1ccccc1I [Compound I-1-8] | – | 100% | – | –
5 | O=C(Nc1nc(-c2c(F)cccc2F)ns1)c1ccccc1C(F)F [Compound I-1-9] | 70% | 100% | – | –
6 | O=C(Nc1nc(-c2c(F)cccc2F)ns1)c1ncccc1C(F)(F)F [Compound I-1-13] | 90% | – | – | –
7 | O=C(Nc1nc(-c2c(F)cccc2F)ns1)c1cccnc1C(F)F [Compound I-1-14] | 100% | 100% | – | –
8 | O=C(Nc1nc(-c2ccccc2C(F)(F)F)ns1)c1ccccc1Br [Compound I-1-16] | 90% | – | – | –
9 | O=C(Nc1nc(-c2ccccc2C(F)(F)F)ns1)c1ncccc1C(F)(F)F [Compound I-1-19] | 90% | – | 100% | –
10 | O=C(Nc1nc(-c2ccccc2Cl)ns1)c1ccccc1Br [Compound I-1-21, 2-Bromo-N-[3-(2-chlorophenyl)-1,2,4-thiadiazol-5-yl]benzamide] | – | – | – | mortality at 500 g/ha [5]: ≥ 80%; mortality at 500 g/ha [6]: ≥ 90%
11 | O=C(Nc1nc(-c2ccccc2Cl)ns1)c1ccccc1Cl [Compound I-1-22] | – | 100% | – | –
12 | O=C(Nc1nc(-c2c(F)cccc2F)ns1)c1cccnc1Cl [Compound I-1-29, 2-Chloro-N-[3-(2,6-difluorophenyl)-1,2,4-thiadiazol-5-yl]nicotinamide] | 100% | – | 80% | mortality at 500 g/ha [6]: ≥ 90%; mortality at 500 g/ha [7]: ≥ 90%
13 | O=C(Nc1nc(-c2c(F)cccc2F)ns1)c1cccnc1C(F)(F)F.[Na+] [Compound I-1-30, Sodium [3-(2,6-difluorophenyl)-1,2,4-thiadiazol-5-yl]{[2-(trifluoromethyl)pyridin-3-yl]carbonyl}azanide] | 100% | 100% | – | mortality at 500 g/ha [5]: ≥ 80%; mortality at 500 g/ha [8]: ≥ 70%; mortality at 500 g/ha [7]: ≥ 90%; efficacy (fleas dead or moribund) [3]: 90%
14 | CCN(C(=O)c1cccnc1C(F)(F)F)c1nc(-c2c(F)cccc2F)ns1 [Compound I-1-34, N-[3-(2,6-Difluorophenyl)-1,2,4-thiadiazol-5-yl]-N-ethyl-2-(trifluoromethyl)nicotinamide] | – | – | – | mortality at 500 g/ha [8]: ≥ 70%
15 | CCc1ncccc1C(=O)Nc1nc(-c2c(F)cccc2F)ns1 [Compound I-1-36, N-[3-(2,6-Difluorophenyl)-1,2,4-thiadiazol-5-yl]-2-ethylnicotinamide] | 100% | – | – | mortality at 500 g/ha [5]: ≥ 80%
16 | O=C(Nc1nc(-c2c(F)cccc2F)ns1)c1cccnc1CC(F)(F)F [Compound I-1-38] | – | – | 80% | –
17 | O=C(Nc1nc(-c2c(F)cccc2F)ns1)C1=C(C(F)F)OCCS1 [Compound I-1-39] | 70% | – | – | –
18 | O=C(Nc1nc(-c2ccccc2Cl)ns1)c1cccnc1C(F)(F)F [Compound I-1-43, N-[3-(2-chlorophenyl)-1,2,4-thiadiazol-5-yl]-2-(trifluoromethyl)nicotinamide] | – | – | – | mortality at 500 g/ha [5]: ≥ 80%; mortality at 500 g/ha [6]: ≥ 90%; mortality at 500 g/ha [8]: ≥ 70%; mortality at 500 g/ha [7]: ≥ 90%
19 | O=C(Nc1nc(-c2ccccc2Cl)ns1)c1nccnc1C(F)(F)F [Compound I-1-44] | – | 100% | 100% | –
20 | CCc1ncccc1C(=O)Nc1nc(-c2ccccc2Cl)ns1 [Compound I-1-48] | 90% | – | – | –
21 | Cc1ccccc1-c1nsc(NC(=O)c2cccnc2C(F)(F)F)n1 [Compound I-1-53] | – | – | 80% | –
22 | O=C(Nc1nc(-c2cccc(F)c2C(F)(F)F)ns1)c1cccnc1C(F)(F)F [Compound I-1-61] | – | – | 80% | –
23 | O=C(Nc1nc(-c2cc(F)ccc2C(F)(F)F)ns1)c1cccnc1C(F)(F)F [Compound I-1-64] | – | – | 100% | –
24 | O=C(Nc1nc(-c2ccc(C(F)(F)F)cc2C(F)(F)F)ns1)c1cccnc1C(F)(F)F [Compound I-1-66, N-{3-[2,4-Bis(trifluoromethyl)phenyl]-1,2,4-thiadiazol-5-yl}-2-(trifluoromethyl)nicotinamide] | – | – | – | mortality at 500 g/ha [7]: ≥ 90%
25 | N#Cc1ccccc1-c1nsc(NC(=O)c2cccnc2C(F)(F)F)n1 [Compound I-1-67, N-[3-(2-Cyanophenyl)-1,2,4-thiadiazol-5-yl]-2-(trifluoromethyl)nicotinamide] | – | – | – | mortality at 500 g/ha [7]: ≥ 90%
26 | O=C(Nc1nc(-c2ccccc2OC(F)(F)F)ns1)c1ccccc1C(F)(F)F [Compound I-1-70, N-{3-[2-(trifluoromethoxy)phenyl]-1,2,4-thiadiazol-5-yl}-2-(trifluoromethyl)benzamide] | – | – | 100% | mortality at 500 g/ha [5]: ≥ 80%
27 | O=C(Nc1nc(-c2ccccc2F)ns1)c1ccccc1C(F)(F)F [Compound I-1-73] | – | – | 100% | –
28 | O=C(Nc1nc(-c2c(F)cccc2F)ns1)c1cccc(Cl)c1C(F)(F)F [Compound I-1-77] | – | – | 80% | –
29 | N#Cc1cccc(C#N)c1-c1nsc(NC(=O)c2cccnc2C(F)(F)F)n1 [Compound I-1-78, N-[3-(2,6-Dicyanophenyl)-1,2,4-thiadiazol-5-yl]-2-(trifluoromethyl)nicotinamide] | – | – | – | mortality at 500 g/ha [5]: ≥ 80%
30 | O=C(Nc1nc(-c2cccnc2Cl)ns1)c1ccccc1C(F)(F)F [Compound I-3-1, N-[3-(2-Chloropyridin-3-yl)-1,2,4-thiadiazol-5-yl]-2-(trifluoromethyl)benzamide] | – | – | – | mortality at 500 g/ha [5]: ≥ 80%; mortality at 500 g/ha [7]: ≥ 90%
